Legend:
Format in all cases: functional
SR = test: Cytotoxicity against human SR after 48 hrs by SRB assay
SF-295 = test: Cytotoxicity against human SF295 after 48 hrs by SRB assay; conditions: SF-295, 48 h
NCI-H226 = test: Cytotoxicity against human NCI-H226 after 48 hrs by SRB assay; conditions: NCI-H226, 48 h
SF-268 = test: Cytotoxicity against human SF268 after 48 hrs by SRB assay; conditions: SF-268, 48 h
A549 = test: Cytotoxicity against human A549 after 48 hrs by SRB assay; conditions: A549, 48 h
UO-31 = test: Cytotoxicity against human UO31 after 48 hrs by SRB assay; conditions: UO-31, 48 h
MDA-MB-468 = test: Cytotoxicity against human MDA-MB-468 after 48 hrs by SRB assay; conditions: MDA-MB-468, 48 h
MOLT-4 = test: Cytotoxicity against human MOLT4 after 48 hrs by SRB assay; conditions: MOLT-4, 48 h
NCI-H460 = test: Cytotoxicity against human NCI-H460 after 48 hrs by SRB assay; conditions: NCI-H460, 48 h
NCI-H23 = test: Cytotoxicity against human NCI-H23 after 48 hrs by SRB assay; conditions: NCI-H23, 48 h
COLO 205 = test: Cytotoxicity against human COLO205 after 48 hrs by SRB assay; conditions: COLO 205, 48 h
HCT-15 = test: Cytotoxicity against human HCT15 after 48 hrs by SRB assay; conditions: HCT-15, 48 h
RXF 393 = test: Cytotoxicity against human RXF393 after 48 hrs by SRB assay; conditions: RXF 393, 48 h
SK-MEL-2 = test: Cytotoxicity against human SK-MEL-2 after 48 hrs by SRB assay; conditions: SK-MEL-2, 48 h
SF-539 = test: Cytotoxicity against human SF539 after 48 hrs by SRB assay; conditions: SF-539, 48 h
SW-620 = test: Cytotoxicity against human SW620 after 48 hrs by SRB assay; conditions: SW-620, 48 h
A498 = test: Cytotoxicity against human A498 after 48 hrs by SRB assay; conditions: A498, 48 h
U-251 = test: Cytotoxicity against human U251 after 48 hrs by SRB assay; conditions: U-251, 48 h
SK-OV-3 = test: Cytotoxicity against human SKOV3 after 48 hrs by SRB assay; conditions: SK-OV-3, 48 h
ACHN = test: Cytotoxicity against human ACHN after 48 hrs by SRB assay
CAKI-1 = test: Cytotoxicity against human CAKI-1 after 48 hrs by SRB assay; conditions: CAKI-1, 48 h
NCI-H522 = test: Cytotoxicity against human NCI-H522 after 48 hrs by SRB assay; conditions: NCI-H522, 48 h
Malme-3M = test: Cytotoxicity against human MALME-3M after 48 hrs by SRB assay
MCF7 = test: Cytotoxicity against human MCF7 after 48 hrs by SRB assay; conditions: MCF7, 48 h
[1] = Cytotoxicity against human EKVX after 48 hrs by SRB assay
HCC 2998 = test: Cytotoxicity against human HCC2998 after 48 hrs by SRB assay; conditions: HCC 2998, 48 h
OVCAR-5 = test: Cytotoxicity against human OVCAR5 after 48 hrs by SRB assay; conditions: OVCAR-5, 48 h
PC-3 = test: Cytotoxicity against human PC3 after 48 hrs by SRB assay; conditions: PC-3, 48 h
NCI-H322M = test: Cytotoxicity against human NCI-H322M after 48 hrs by SRB assay
TK-10 = test: Cytotoxicity against human TK10 after 48 hrs by SRB assay; conditions: TK-10, 48 h
UACC-257 = test: Cytotoxicity against human UACC257 after 48 hrs by SRB assay; conditions: UACC-257, 48 h
LOX IMVI = test: Cytotoxicity against human LOXIMVI after 48 hrs by SRB assay
HOP-92 = test: Cytotoxicity against human HOP92 after 48 hrs by SRB assay; conditions: HOP-92, 48 h
786-0 = test: Cytotoxicity against human 786-0 after 48 hrs by SRB assay; conditions: 786-0, 48 h
OVCAR-4 = test: Cytotoxicity against human OVCAR4 after 48 hrs by SRB assay; conditions: OVCAR-4, 48 h
SK-MEL-5 = test: Cytotoxicity against human SK-MEL-5 after 48 hrs by SRB assay; conditions: SK-MEL-5, 48 h
HCT-116 = test: Cytotoxicity against human HCT116 after 48 hrs by SRB assay; conditions: HCT-116, 48 h
SNB-19 = test: Cytotoxicity against human SNB19 after 48 hrs by SRB assay; conditions: SNB-19, 48 h
SN12C = test: Cytotoxicity against human SN12C after 48 hrs by SRB assay
SNB-75 = test: Cytotoxicity against human SNB75 after 48 hrs by SRB assay; conditions: SNB-75, 48 h
KM12 = test: Cytotoxicity against human KM12 after 48 hrs by SRB assay; conditions: KM12, 48 h
IGROV-1 = test: Cytotoxicity against human IGROV1 after 48 hrs by SRB assay; conditions: IGROV-1, 48 h
HT-29 = test: Cytotoxicity against human HT-29 after 48 hrs by SRB assay; conditions: HT-29, 48 h
M14 = test: Cytotoxicity against human M14 after 48 hrs by SRB assay; conditions: M14, 48 h
HOP-62 = test: Cytotoxicity against human HOP62 after 48 hrs by SRB assay; conditions: HOP-62, 48 h
NCI/ADR-RES = test: Cytotoxicity against human NCI/ADR-RES after 48 hrs by SRB assay
SK-MEL-28 = test: Cytotoxicity against human SK-MEL-28 after 48 hrs by SRB assay; conditions: SK-MEL-28, 48 h
T47D = test: Cytotoxicity against human T47D after 48 hrs by SRB assay
MDA-MB-435 = test: Cytotoxicity against human MDA-MB-435 after 48 hrs by SRB assay; conditions: MDA-MB-435, 48 h
[2] = Cytotoxicity against human HL-60(TB) after 48 hrs by SRB assay; conditions: HL-60, 48 h
BT-549 = test: Cytotoxicity against human BT549 after 48 hrs by SRB assay; conditions: BT-549, 48 h
OVCAR-8 = test: Cytotoxicity against human OVCAR8 after 48 hrs by SRB assay; conditions: OVCAR-8, 48 h
MDA-MB-231 = test: Cytotoxicity against human MDA-MB-231 after 48 hrs by SRB assay; conditions: MDA-MB-231, 48 h
DU-145 = test: Cytotoxicity against human DU145 after 48 hrs by SRB assay; conditions: DU-145, 48 h
UACC-62 = test: Cytotoxicity against human UACC62 after 48 hrs by SRB assay; conditions: UACC-62, 48 h
OVCAR-3 = test: Cytotoxicity against human OVCAR3 after 48 hrs by SRB assay; conditions: OVCAR-3, 48 h
Hs-578T = test: Cytotoxicity against human Hs578T after 48 hrs by SRB assay
[3] = read-out: LC50 (the source's name)

SMILES: COc1cc(/C=C2\CN(C)CC3=C2Nc2nc(SC)[nH]c(=O)c2C3c2cc(OC)c(OC)c(OC)c2)cc(OC)c1OC (centres undefined)
- GI50 (SR): 1.48 µM
- CC50 (SR; [3]): > 100 µM
- GI50 (SF-295): 2.24 µM
- CC50 (SF-295; [3]): 26.9 µM
- GI50 (NCI-H226): 6.17 µM
- CC50 (NCI-H226; [3]): 60.6 µM
- GI50 (SF-268): 1.66 µM
- CC50 (SF-268; [3]): 6.96 µM
- GI50 (A549): 3.26 µM
- CC50 (A549; [3]): 62.5 µM
- GI50 (UO-31): 1.57 µM
- CC50 (UO-31; [3]): 7.54 µM
- GI50 (MDA-MB-468): 2.2 µM
- CC50 (MDA-MB-468; [3]): 38.8 µM
- GI50 (MOLT-4): 2.92 µM
- CC50 (MOLT-4; [3]): > 100 µM
- GI50 (NCI-H460): 2.3 µM
- CC50 (NCI-H460; [3]): > 100 µM
- GI50 (NCI-H23): 3.54 µM
- CC50 (NCI-H23; [3]): > 100 µM
- GI50 (COLO 205): 2.11 µM
- CC50 (COLO 205; [3]): 12.6 µM
- GI50 (HCT-15): 2.07 µM
- CC50 (HCT-15; [3]): 13.6 µM
- GI50 (RXF 393): 1.81 µM
- CC50 (RXF 393; [3]): 6.61 µM
- GI50 (SK-MEL-2): 9.92 µM
- CC50 (SK-MEL-2; [3]): > 100 µM
- GI50 (SF-539): 3.64 µM
- CC50 (SF-539; [3]): > 100 µM
- GI50 (SW-620): 2 µM
- CC50 (SW-620; [3]): 9.69 µM
- GI50 (A498): 9.58 µM
- CC50 (A498; [3]): 46.7 µM
- GI50 (U-251): 1.76 µM
- CC50 (U-251; [3]): 9.75 µM
- GI50 (SK-OV-3): 3.07 µM
- CC50 (SK-OV-3; [3]): 51 µM
- GI50 (ACHN): 1.93 µM
- CC50 (ACHN; [3]): 6.53 µM
- GI50 (CAKI-1): 2.15 µM
- CC50 (CAKI-1; [3]): 11.9 µM
- GI50 (NCI-H522): 2.04 µM
- CC50 (NCI-H522; [3]): 15.5 µM
- GI50 (Malme-3M): 2.82 µM
- CC50 (Malme-3M; [3]): 55.5 µM
- GI50 (MCF7): 4.98 µM
- CC50 (MCF7; [3]): 50 µM
- GI50 [1]: 8.44 µM
- CC50 [1, 3]: > 100 µM
- GI50 (HCC 2998): 1.91 µM
- CC50 (HCC 2998; [3]): 6.9 µM
- GI50 (OVCAR-5): 4.83 µM
- CC50 (OVCAR-5; [3]): 48.7 µM
- GI50 (PC-3): 3.63 µM
- CC50 (PC-3; [3]): > 100 µM
- GI50 (NCI-H322M): 6.6 µM
- CC50 (NCI-H322M; [3]): 46.1 µM
- GI50 (TK-10): 6.07 µM
- CC50 (TK-10; [3]): 46.9 µM
- GI50 (UACC-257): 2.24 µM
- CC50 (UACC-257; [3]): 29.1 µM
- GI50 (LOX IMVI): 1.66 µM
- CC50 (LOX IMVI; [3]): 9.37 µM
- GI50 (HOP-92): 3.4 µM
- CC50 (HOP-92; [3]): 53.4 µM
- GI50 (786-0): 4.01 µM
- CC50 (786-0; [3]): 87.3 µM
- GI50 (OVCAR-4): 4.99 µM
- CC50 (OVCAR-4; [3]): 81 µM
- GI50 (SK-MEL-5): 2.83 µM
- CC50 (SK-MEL-5; [3]): 34.7 µM
- GI50 (HCT-116): 1.66 µM
- CC50 (HCT-116; [3]): 6.05 µM
- GI50 (SNB-19): 8.65 µM
- CC50 (SNB-19; [3]): 50 µM
- GI50 (SN12C): 2.98 µM
- CC50 (SN12C; [3]): 78.1 µM
- GI50 (SNB-75): 7.36 µM
- CC50 (SNB-75; [3]): 57.8 µM
- GI50 (KM12): 1.7 µM
- CC50 (KM12; [3]): 6.08 µM
- GI50 (IGROV-1): 3.1 µM
- CC50 (IGROV-1; [3]): 85.8 µM
- GI50 (HT-29): 2.35 µM
- CC50 (HT-29; [3]): 16.3 µM
- GI50 (M14): 2.98 µM
- CC50 (M14; [3]): 50.9 µM
- GI50 (HOP-62): 2.46 µM
- CC50 (HOP-62; [3]): 41.3 µM
- GI50 (NCI/ADR-RES): 3.6 µM
- CC50 (NCI/ADR-RES; [3]): > 100 µM
- GI50 (SK-MEL-28): 2.1 µM
- CC50 (SK-MEL-28; [3]): 8.79 µM
- GI50 (T47D): 3.69 µM
- CC50 (T47D; [3]): > 100 µM
- GI50 (MDA-MB-435): 2.51 µM
- CC50 (MDA-MB-435; [3]): 39.8 µM
- GI50 [2]: 2.26 µM
- CC50 [2, 3]: > 100 µM
- GI50 (BT-549): 2.98 µM
- CC50 (BT-549; [3]): 29.5 µM
- GI50 (OVCAR-8): 2.89 µM
- CC50 (OVCAR-8; [3]): > 100 µM
- GI50 (MDA-MB-231): 3.14 µM
- CC50 (MDA-MB-231; [3]): 50.3 µM
- GI50 (DU-145): 3.6 µM
- CC50 (DU-145; [3]): 34.8 µM
- GI50 (UACC-62): 2.06 µM
- CC50 (UACC-62; [3]): 18.5 µM
- GI50 (OVCAR-3): 2.64 µM
- CC50 (OVCAR-3; [3]): 23.4 µM
- GI50 (Hs-578T): 8.88 µM
- CC50 (Hs-578T; [3]): > 100 µM
